Source: ChEMBL document CHEMBL1201862, “PubChem BioAssay data set” (2004)
Activity calls are given as the source filed them. Cut-off read from the data, not from the text of the source, for most assays here: actives have a measured EC50 and inactives only a lower limit.

Legend:
[1] = target: T1, Rac GTPase-activating protein 1 (Homo sapiens, UniProt Q9H0H5); assay: MgcRacGAP GTPase-activating activity inhibitors, confirmation, biochemical, ADP Hunter fluorescence, primary and confirmatory (AID 624330); assay type: functional
T1 sequence (Q9H0H5 whole entry): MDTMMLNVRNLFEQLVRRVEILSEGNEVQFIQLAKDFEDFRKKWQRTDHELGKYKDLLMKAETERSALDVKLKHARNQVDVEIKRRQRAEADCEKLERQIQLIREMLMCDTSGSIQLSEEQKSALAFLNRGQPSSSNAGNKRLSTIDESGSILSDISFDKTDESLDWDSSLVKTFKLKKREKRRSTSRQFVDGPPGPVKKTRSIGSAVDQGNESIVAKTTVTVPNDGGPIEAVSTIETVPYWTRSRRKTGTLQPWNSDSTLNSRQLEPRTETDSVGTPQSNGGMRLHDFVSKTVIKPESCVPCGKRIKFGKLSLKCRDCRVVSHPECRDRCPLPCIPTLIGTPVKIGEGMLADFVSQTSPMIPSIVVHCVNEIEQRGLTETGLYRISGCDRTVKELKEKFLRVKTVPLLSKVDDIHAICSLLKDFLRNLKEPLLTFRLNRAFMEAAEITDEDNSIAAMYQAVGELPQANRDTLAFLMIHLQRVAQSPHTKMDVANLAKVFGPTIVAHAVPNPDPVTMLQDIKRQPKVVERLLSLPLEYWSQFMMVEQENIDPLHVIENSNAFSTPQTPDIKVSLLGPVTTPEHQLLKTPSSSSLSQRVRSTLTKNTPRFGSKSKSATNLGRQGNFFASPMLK

[2] = cytotoxicity toward NIH3T3 fibroblasts, dose response, counter-screen, cell-based, ATP luminescence, mouse fibroblasts (AID 2010); assay type: functional;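 note: cells exposed to compound for about 90 hours before reading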
[3] = inhibitors of intracellular T. cruzi replication, confirmation, NIH3T3 host cells, beta-gal luminescence (AID 2044); assay type: functional, cell-based;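 note: intracellular parasites grown in NIH/3T3 mouse fibroblasts as host cells; luminescent beta-galactosidase reporter signal from transgenic T. cruzi replicating inside host cells; inhibitors lower the luminescence signal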
H4 = assay: Luminescence Cell-Based Dose Response HTS to Identify Activators of 5'UTR Stem-Loop Driven Prion Protein mRNA Translation in H4 Neuroglioblastoma Cells. [Related pubchem assays: 1829 (Project Summary), 1814 (Primary HTS)]; assay type: functional; conditions: Homo sapiens
[4] = Luminescence Cell-Based Dose Confirmation HTS to Identify Activators of 5'UTR Stem-Loop Driven Alpha-Synuclein mRNA Translation in H4 Neuroglioblastoma Cells. [Related pubchem assays: 1829 (Project Summary), 1814 (Primary HTS)]; assay type: functional
[5] = Luminescence Cell-Based Dose Response HTS to Identify Activators of Luciferase Translation or Activity in H4 […] Cells. [Related pubchem assays: 1829 (Project Summary), 1814 (Primary HTS)]; assay type: functional
Protein RecA = target: T2, Protein RecA (Mycobacterium tuberculosis, UniProt P9WHJ3); assay: Fluorescence Cell-Free Homogeneous Dose Retest to Identify Inhibitors of RecA-Intein Splicing Activity. [Related pubchem assays (depositor defined):AID2097, AID2223, AID489010, AID492950]; assay type: functional
T2 sequence (P9WHJ3 whole entry): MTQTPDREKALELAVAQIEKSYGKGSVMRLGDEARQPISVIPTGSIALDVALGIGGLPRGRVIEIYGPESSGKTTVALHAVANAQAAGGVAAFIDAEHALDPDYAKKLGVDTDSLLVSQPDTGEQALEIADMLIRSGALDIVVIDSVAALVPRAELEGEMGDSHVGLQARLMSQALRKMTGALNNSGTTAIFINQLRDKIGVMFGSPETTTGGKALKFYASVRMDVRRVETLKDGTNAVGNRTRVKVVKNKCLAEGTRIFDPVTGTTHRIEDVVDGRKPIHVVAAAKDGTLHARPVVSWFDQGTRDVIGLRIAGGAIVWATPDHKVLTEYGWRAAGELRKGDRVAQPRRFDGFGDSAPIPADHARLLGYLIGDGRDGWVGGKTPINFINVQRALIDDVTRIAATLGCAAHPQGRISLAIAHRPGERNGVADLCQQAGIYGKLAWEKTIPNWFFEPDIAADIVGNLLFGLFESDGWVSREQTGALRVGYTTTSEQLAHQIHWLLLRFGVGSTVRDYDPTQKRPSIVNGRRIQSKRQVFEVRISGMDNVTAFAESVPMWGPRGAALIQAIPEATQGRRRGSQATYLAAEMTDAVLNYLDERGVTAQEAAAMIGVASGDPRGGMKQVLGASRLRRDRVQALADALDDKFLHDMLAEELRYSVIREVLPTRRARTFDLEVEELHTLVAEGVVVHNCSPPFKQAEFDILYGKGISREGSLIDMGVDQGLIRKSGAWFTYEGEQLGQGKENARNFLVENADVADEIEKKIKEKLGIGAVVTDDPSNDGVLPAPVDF

[6] = target: T3, Replicative DNA helicase DnaB (Mycobacterium tuberculosis, UniProt P9WMR3); assay: DnaB intein splicing inhibitors, dose response, biochemical, cell-free fluorescence (AID 449749); assay type: functional
T3 sequence (P9WMR3 whole entry): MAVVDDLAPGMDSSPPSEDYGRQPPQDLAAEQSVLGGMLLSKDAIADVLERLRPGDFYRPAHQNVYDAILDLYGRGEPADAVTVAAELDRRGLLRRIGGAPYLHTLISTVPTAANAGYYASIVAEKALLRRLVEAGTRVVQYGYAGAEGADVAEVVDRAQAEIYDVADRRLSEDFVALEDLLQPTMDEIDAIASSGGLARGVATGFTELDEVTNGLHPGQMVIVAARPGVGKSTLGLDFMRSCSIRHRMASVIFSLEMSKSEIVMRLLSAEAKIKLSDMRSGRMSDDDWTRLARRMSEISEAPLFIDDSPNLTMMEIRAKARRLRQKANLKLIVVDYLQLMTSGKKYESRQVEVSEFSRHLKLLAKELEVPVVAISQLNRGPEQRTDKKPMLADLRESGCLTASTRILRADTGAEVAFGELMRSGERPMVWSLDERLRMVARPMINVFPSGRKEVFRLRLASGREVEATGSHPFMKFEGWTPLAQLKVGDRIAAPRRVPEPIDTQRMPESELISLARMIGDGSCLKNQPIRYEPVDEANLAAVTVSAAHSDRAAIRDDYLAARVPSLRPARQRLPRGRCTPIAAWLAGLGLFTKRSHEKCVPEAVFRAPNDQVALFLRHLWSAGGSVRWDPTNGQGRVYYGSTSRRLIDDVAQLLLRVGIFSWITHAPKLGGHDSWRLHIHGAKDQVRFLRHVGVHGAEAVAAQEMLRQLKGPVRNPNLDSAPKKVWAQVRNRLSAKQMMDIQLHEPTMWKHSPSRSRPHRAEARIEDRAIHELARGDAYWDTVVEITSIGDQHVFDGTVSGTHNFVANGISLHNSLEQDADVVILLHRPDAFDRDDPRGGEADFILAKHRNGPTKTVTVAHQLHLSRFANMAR

cells [7] = assay type: functional, cell-based
cells [8] = assay type: functional, cell-based; remark: listed apart in the source
INS1 = assay: beta cell apoptosis inhibitors, cytokine rescue, dose response, luminescence, retest (AID 449756); assay type: functional, cell-based; conditions: Rattus norvegicus;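 note: cell death triggered by IL-1 beta plus TNF-alpha plus IFN-gamma mixture; protective hits raise ATP signal compared with cytokine alone wells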
[9] = target: T4, Heat shock factor protein 1 (Mus musculus, UniProt P38532); assay: HSF1 potentiators in luciferase reporter cells, confirmation, cell-based, NIH3T3, luminescence, dose retest (AID 435004); assay type: functional;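 note: stress induced by proteasome inhibitor MG132 added 30 min after compound; luciferase reporter driven by HSF1 response element in NIH3T3 cells; actives raise luminescence as potentiators of the MG132 stress response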
T4 sequence (P38532 whole entry): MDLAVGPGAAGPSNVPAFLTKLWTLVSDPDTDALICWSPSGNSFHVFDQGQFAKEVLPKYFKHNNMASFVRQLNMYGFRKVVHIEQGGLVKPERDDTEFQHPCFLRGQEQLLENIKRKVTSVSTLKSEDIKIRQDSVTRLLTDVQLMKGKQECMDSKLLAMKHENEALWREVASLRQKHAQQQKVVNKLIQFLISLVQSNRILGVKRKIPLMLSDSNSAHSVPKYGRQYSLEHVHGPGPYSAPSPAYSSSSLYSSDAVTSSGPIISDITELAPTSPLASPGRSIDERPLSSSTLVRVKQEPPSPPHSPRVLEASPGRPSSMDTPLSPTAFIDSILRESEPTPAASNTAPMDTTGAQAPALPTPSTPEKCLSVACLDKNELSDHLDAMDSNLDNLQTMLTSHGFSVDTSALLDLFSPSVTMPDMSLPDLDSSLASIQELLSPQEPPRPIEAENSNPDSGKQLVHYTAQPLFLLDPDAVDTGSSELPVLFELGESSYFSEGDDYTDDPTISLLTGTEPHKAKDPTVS

In the case of `CCCS(=O)(=O)N1CCN(Cc2ccco2)CC1`, the IC50 [1] is reported as 130 µM (active).
In the case of `CCc1ccc2nc(O)c(CN(Cc3ccccc3OC)C(=O)Nc3ccccc3OC)cc2c1`, the EC50 [2] is reported as > 60 µM (not active), the EC50 [3] is reported as 3 µM (active) and the EC50 (H4) is reported as 111 µM (active). For the same compound, the EC50 [4] was 111 µM (active) and the EC50 [5] was > 120 µM (not active).
In the case of `COc1cc(C2C(C#N)=C(N)Oc3[nH]nc(-c4cccnc4)c32)ccc1OCC(N)=O` (stereo unspecified), the EC50 (Protein RecA) is reported as 3.16 µM (active) and the AC50 [6] is reported as 48.5 µM (active).
With `Cc1ccc(-n2cc(CN3CCC(CO)(Cc4ccccc4)CC3)cn2)cc1` the EC50 (cells [7]) was > 350 µM (not active) and the EC50 (cells [8]) was > 350 µM (not active).
With `CCCCCn1c(=O)c(C(=O)NCc2ccccc2Cl)c(O)c2ccccc21` the AC50 (INS1) was 8.04 µM (active).
With `Cc1cccc(Nc2c(-c3ccc(O)cc3)nc3ncccn23)c1` the IC50 [1] was 32.1 µM (active).
In the case of `Cc1[nH]nc(O)c1C(c1ccc(Cl)cc1)c1c(O)n[nH]c1C`, the EC50 (Protein RecA) is reported as 0.461 µM (active) and the AC50 [6] is reported as 1.27 µM (active).
With `COc1cc(NC(=O)CN2C(=O)c3ccccc3Sc3ccc(C(=O)N4CCOCC4)cc32)cc(OC)c1OC` the EC50 (cells [7]) was > 350 µM (not active) and the EC50 (cells [8]) was > 350 µM (not active).
In the case of `Oc1ccc(-c2cn3c(n2)SCC3)cc1`, the IC50 [1] is reported as 18.9 µM (active).
With `CCSc1cc(C)nc2c(-c3ccccc3)cnn12` the EC50 (cells [7]) was > 350 µM (not active) and the EC50 (cells [8]) was 23.1 µM (active).
For `O=C(CSc1nnnn1C1CC1)N1CCN(c2ccc(O)cc2)CC1`, the IC50 [1] was 30.8 µM (active).
In the case of `O=[N+]([O-])c1cccc(/C=N/n2cnnc2)c1`, the AC50 (INS1) is reported as > 260 µM (inactive).
In the case of `O=C(c1c[nH]c(C(=O)C(Cl)(Cl)Cl)c1)c1ccc(F)cc1F`, the EC50 (Protein RecA) is reported as 7.8 µM (active) and the AC50 [6] is reported as 21.2 µM (active).
For `COc1ccc(NC2CCCN(C(=O)c3ccc4[nH]c(C)c(C)c4c3)C2)cc1` (stereo unspecified), the IC50 [1] was 81.4 µM (active).
In the case of `Cc1ccc(OCCCCNC(C)(C)C)c([N+](=O)[O-])c1`, the IC50 [1] is reported as 141 µM (active).
In the case of `Cc1occc1C(=O)N/N=C/c1c(O)ccc2ccccc12`, the EC50 (cells [7]) is reported as 69 µM (active), the AC50 (INS1) is reported as 1.25 µM (active) and the EC50 (cells [8]) is reported as 9.8 µM (active).
With `CCN1CCN(C(S)=NCC2CCCO2)CC1` (stereo unspecified) the IC50 [1] was 186 µM (active).
For `O=c1c2cc(-c3ccccc3)sc2ncn1-n1cccc1`, the EC50 (H4) was 15 µM (active), the EC50 [4] was 0.473 µM (active) and the EC50 [5] was 0.674 µM (active).
For `Cc1ccc(S(=O)(=O)Nc2cc(-c3ccc(Cl)cc3)nn2C)cc1`, the EC50 (cells [7]) was > 350 µM (not active) and the EC50 (cells [8]) was > 350 µM (not active).
In the case of `O=C(Cn1nc(-c2ccccc2Cl)ccc1=O)Nc1ccccc1-c1ccccc1`, the EC50 (cells [7]) is reported as > 350 µM (not active), the EC50 (cells [8]) is reported as > 350 µM (not active) and the EC50 [9] is reported as 120 µM (active).
With `COC(=O)COc1c(Cl)cc(C(c2c(C)n[nH]c2O)c2c(C)n[nH]c2O)cc1OC` the EC50 (Protein RecA) was 0.158 µM (active) and the AC50 [6] was 0.47 µM (active).
With `Cc1ccc(OC(C)C(=O)N2CC(=O)Nc3ccccc32)cc1` (stereo unspecified) the EC50 (cells [7]) was > 350 µM (not active) and the EC50 (cells [8]) was > 350 µM (not active).
For `CC(=O)n1c2c(c3ccccc31)OC(N)=C(C#N)C2c1ccc(C(C)C)cc1` (stereo unspecified), the EC50 (H4) was 16.2 µM (active), the EC50 [4] was 11.7 µM (active) and the EC50 [5] was 10 µM (active).
In the case of `CCOC(=O)/C(C#N)=C1/C=CN(c2ccc(C)cc2)C=N1`, the EC50 (H4) is reported as 14.8 µM (active), the EC50 [4] is reported as > 120 µM (not active) and the EC50 [5] is reported as 14.9 µM (active).
In the case of `COc1cc2c(cc1OC)CN(c1ccc3ccccc3n1)CC2`, the EC50 (H4) is reported as 15.9 µM (active), the EC50 [4] is reported as 17 µM (active) and the EC50 [5] is reported as 11.9 µM (active).
With `Cc1ccc(COC(=O)Cc2coc3cc(O)ccc23)cc1` the IC50 [1] was 30.1 µM (active).
For `Cc1nnc2ccc(Oc3ccc(-c4ccccc4)cc3)nn12`, the AC50 (INS1) was 6.58 µM (active) and the IC50 [1] was 99.4 µM (active).
In the case of `C(/CCc1ccccc1)=N\Nc1nc2ccccc2[nH]1`, the EC50 (cells [7]) is reported as 92.2 µM (active), the AC50 (INS1) is reported as 5.2 µM (active) and the EC50 (cells [8]) is reported as 35.8 µM (active).
